The subject of data set [1] is Mycobacterium tuberculosis. The experiment in a line: Antimycobacterial activity against Mycobacterium tuberculosis My 331/88 after 14 days by micromethod. Type of data set: functional. To be noted: My 331/88, 336 h.
The subject of data set [2] is Mycobacterium avium. The experiment in a line: Antimycobacterial activity against Mycobacterium avium My 330/88 after 14 days by micromethod. To be noted: My 330/88, 336 h. The data set is classed as functional.
The test system of data set [3] is Mycobacterium tuberculosis. The data set can be described thus: Antimycobacterial activity against Mycobacterium tuberculosis My 331/88 after 21 days by micromethod. Conditions: My 331/88, 504 h. Type of data set: functional.
Data set [4] deals with Mycobacterium avium. The experiment in a line: Antimycobacterial activity against Mycobacterium avium My 330/88 after 21 days by micromethod. Type of data set: functional. To be noted: My 330/88, 504 h.
In data set [5] the test system is Mycobacterium kansasii. The data set can be described thus: Antimycobacterial activity against Mycobacterium kansasii My 235/80 after 7 days by micromethod. The data set is classed as functional. To be noted: My 235/80, 168 h.
Data set [6] has as its system Mycobacterium kansasii. The data set can be described thus: Antimycobacterial activity against Mycobacterium kansasii My 235/80 after 14 days by micromethod. Type of data set: functional. Conditions: My 235/80, 336 h.
The test system of data set [7] is Mycobacterium kansasii. The data set can be described thus: Antimycobacterial activity against Mycobacterium kansasii My 235/80 after 21 days by micromethod. To be noted: My 235/80, 504 h. The data set is classed as functional.
Data set [8] has as its system Mycobacterium kansasii. The experiment in a line: Antimycobacterial activity against Mycobacterium kansasii 6509/96 after 7 days by micromethod. The data set is classed as functional. Conditions: 6509/96, 168 h.
In data set [9] the test system is Mycobacterium kansasii. The experiment in a line: Antimycobacterial activity against Mycobacterium kansasii 6509/96 after 14 days by micromethod. Type of data set: functional. To be noted: 6509/96, 336 h.
Data set [10] deals with Mycobacterium kansasii. The experiment in a line: Antimycobacterial activity against Mycobacterium kansasii 6509/96 after 21 days by micromethod. Conditions: 6509/96, 504 h. The data set is classed as functional.
The nature of data set [11]: Cytotoxicity against CHOK1 cells assessed as viability after 24 hrs by MTT assay. The data set is classed as cell-based. To be noted: Cricetulus griseus, CHO-K1, 24 h. On the technique in general: Tetrazolium assays rely on reduction of a dye to a coloured formazan, in cell work by metabolically active cells.
Data set [12] deals with Salmonella typhimurium. The experiment in a line: Mutagenic activity in Salmonella typhimurium TA98 assessed as induction of reverse mutation at 50 uM. The data set is classed as toxicity, organism-based. To be noted: salmonella enterica subsp. enterica serovar typhimurium.
The test system of data set [13] is Salmonella typhimurium. The experiment in a line: Mutagenic activity in Salmonella typhimurium TA100 assessed as induction of reverse mutation at 50 uM. The data set is classed as toxicity, organism-based. Conditions: salmonella enterica subsp. enterica serovar typhimurium.
Data set [14] concerns Staphylococcus aureus. The data set can be described thus: Antibacterial activity against Staphylococcus aureus ATCC 6538 after 24 to 48 hrs by broth micro dilution method. The data set is classed as functional, organism-based.
Data set [15] concerns Staphylococcus aureus. The data set can be described thus: Antibacterial activity against methicillin-resistant Staphylococcus aureus H 5996/08 after 24 to 48 hrs by broth micro dilution method. The data set is classed as functional, organism-based.
Data set [16] relates to Staphylococcus epidermidis. The data set can be described thus: Antibacterial activity against Staphylococcus epidermidis H 6966/08 after 24 to 48 hrs by broth micro dilution method. Type of data set: functional, organism-based.
The test system of a further data set is Enterococcus faecalis. The experiment in a line: Antibacterial activity against Enterococcus faecalis J 14365/08 after 24 to 48 hrs by broth micro dilution method. The data set is classed as functional, organism-based.
Another data set relates to Escherichia coli. The experiment in a line: Antibacterial activity against Escherichia coli ATCC 8739 after 24 to 48 hrs by broth micro dilution method. Type of data set: functional, organism-based.
The test system of data set [17] is Klebsiella pneumoniae. The experiment in a line: Antibacterial activity against Klebsiella pneumoniae D 11750/08 after 24 to 48 hrs by broth micro dilution method. The data set is classed as functional, organism-based.
For data set [18], the system named is Klebsiella pneumoniae. The experiment in a line: Antibacterial activity against Klebsiella pneumoniae J 14368/08 after 24 to 48 hrs by broth micro dilution method. Type of data set: functional, organism-based.
Data set [19] has as its system Klebsiella pneumoniae. The data set can be described thus: Antibacterial activity against ESBL positive Klebsiella pneumoniae J 14368/08 after 24 to 48 hrs by broth micro dilution method. Type of data set: functional, organism-based.
For a further data set, the system named is Pseudomonas aeruginosa. The data set can be described thus: Antibacterial activity against Pseudomonas aeruginosa ATCC 9027 after 24 to 48 hrs by broth micro dilution method. Type of data set: functional, organism-based.
A further data set has as its system Candida albicans. The experiment in a line: Antifungal activity against Candida albicans ATCC 44859 after 24 to 48 hrs by broth micro dilution method. Type of data set: functional, organism-based.
In another data set the test system is Candida tropicalis. The data set can be described thus: Antifungal activity against Candida tropicalis 156 after 24 to 48 hrs by broth micro dilution method. The data set is classed as functional, organism-based.
Another data set relates to Pichia kudriavzevii. The experiment in a line: Antifungal activity against Candida krusei E28 after 24 to 48 hrs by broth micro dilution method. The data set is classed as functional, organism-based.
In a further data set the test system is Nakaseomyces glabratus. The experiment in a line: Antifungal activity against Candida glabrata 20/I after 24 to 48 hrs by broth micro dilution method. Type of data set: functional, organism-based.
For a further data set, the system named is Trichosporon asahii. The experiment in a line: Antifungal activity against Trichosporon asahii 1188 after 24 to 48 hrs by broth micro dilution method. Type of data set: functional, organism-based.
The test system of another data set is Aspergillus fumigatus. The experiment in a line: Antifungal activity against Aspergillus fumigatus 2318 after 24 to 48 hrs by broth micro dilution method. Type of data set: functional, organism-based.
In a further data set the test system is Lichtheimia corymbifera. The data set can be described thus: Antifungal activity against Absidia corymbifera 272 after 24 to 48 hrs by broth micro dilution method. The data set is classed as functional, organism-based.
Data set [20] deals with Trichophyton mentagrophytes. The experiment in a line: Antifungal activity against Trichophyton mentagrophytes 445 after 72 to 120 hrs by broth micro dilution method. The data set is classed as functional, organism-based.

The structures appear in SMILES notation. ≈ marks a conversion by molar mass, not a printed value. Calls of active or inactive are those of the source. The rule behind the calls is not given here.

For the molecule `O=[N+]([O-])c1cc(CSc2nnnn2Cc2ccc(Cl)cc2)cc([N+](=O)[O-])c1`, the MIC stood at 2 µM (≈ 0.814 µg/mL) in [1]; 125 µM (≈ 50.9 µg/mL) in the data set with Mycobacterium avium [2]; 4 µM (≈ 1.63 µg/mL) in [3]; 125 µM (≈ 50.9 µg/mL) in the data set on Mycobacterium avium [4]; 2 µM (≈ 0.814 µg/mL) in the data set on Mycobacterium kansasii [5]; 2 µM (≈ 0.814 µg/mL) in the data set with Mycobacterium kansasii [6]. The MIC is 4 µM (≈ 1.63 µg/mL) against Mycobacterium kansasii [7], 4 µM (≈ 1.63 µg/mL) against Mycobacterium kansasii [8], 8 µM (≈ 3.25 µg/mL) against Mycobacterium kansasii [9] and 8 µM (≈ 3.25 µg/mL) in the data set on Mycobacterium kansasii [10]. Further, the IC50 in data set [11] came out at 94 µM. In addition, the Activity result in the data set with Salmonella typhimurium [12] and in the data set on Salmonella typhimurium [13] was “Toxic” throughout.
For the molecule `O=[N+]([O-])c1cc(CSc2nnnn2Cc2ccccc2)cc([N+](=O)[O-])c1`, the MIC in data set [1] is 1 µM (≈ 0.372 µg/mL); in the data set with Mycobacterium avium [2] it was 250 µM (≈ 93.1 µg/mL); in data set [3] it was 2 µM (≈ 0.745 µg/mL); against Mycobacterium avium [4] it was 250 µM (≈ 93.1 µg/mL); against Mycobacterium kansasii [5] it was 2 µM (≈ 0.745 µg/mL); in the data set with Mycobacterium kansasii [6] it was 8 µM (≈ 2.98 µg/mL). Moreover, the MIC against Mycobacterium kansasii [7] worked out at 8 µM (≈ 2.98 µg/mL); against Mycobacterium kansasii [8], 2 µM (≈ 0.745 µg/mL); against Mycobacterium kansasii [9], 4 µM (≈ 1.49 µg/mL); in the data set on Mycobacterium kansasii [10], 4 µM (≈ 1.49 µg/mL). For the same molecule, the result (in the data set on Staphylococcus aureus [14]; in the data set with Staphylococcus aureus [15]; in data set [16]; in the data set on Enterococcus faecalis; in the data set on Escherichia coli; in the data set on Klebsiella pneumoniae [17]) was inactive. For the same molecule, the outcome with Klebsiella pneumoniae [18], with Klebsiella pneumoniae [19], in the data set on Pseudomonas aeruginosa, in the data set with Candida albicans, in the data set with Candida tropicalis and with Pichia kudriavzevii was inactive. Besides, the outcome (in the data set with Nakaseomyces glabratus; in the data set on Trichosporon asahii; with Aspergillus fumigatus; with Lichtheimia corymbifera; in [20]) was inactive. In addition, the IC50 in data set [11] worked out at 59 µM. For the same molecule, the Activity entry with Salmonella typhimurium [12] and in the data set on Salmonella typhimurium [13] was “Non-toxic” throughout.
As for `O=[N+]([O-])c1cc(CSc2nnn(Cc3ccc(Cl)cc3)n2)cc([N+](=O)[O-])c1`, the MIC in data set [1] came to 1 µM (≈ 0.407 µg/mL); with Mycobacterium avium [2], 16 µM (≈ 6.51 µg/mL); in data set [3] it was 2 µM (≈ 0.814 µg/mL); with Mycobacterium avium [4] it was 16 µM (≈ 6.51 µg/mL); against Mycobacterium kansasii [5] it was 4 µM (≈ 1.63 µg/mL); with Mycobacterium kansasii [6], 8 µM (≈ 3.25 µg/mL). Also, the MIC with Mycobacterium kansasii [7] stood at 16 µM (≈ 6.51 µg/mL); in the data set with Mycobacterium kansasii [8], 16 µM (≈ 6.51 µg/mL); in the data set with Mycobacterium kansasii [9], 16 µM (≈ 6.51 µg/mL); in the data set with Mycobacterium kansasii [10], 32 µM (≈ 13 µg/mL). In data set [11], the IC50 was determined as 301 µM. The Activity result in the data set with Salmonella typhimurium [12] and in the data set on Salmonella typhimurium [13] was “Toxic” each time.
As to `O=[N+]([O-])c1cc(Cn2nnc([Se]Cc3ccccc3)n2)cc([N+](=O)[O-])c1`, the minimal inhibitory concentration (MIC) in [1] was found to be 8 µM (≈ 3.35 µg/mL); against Mycobacterium avium [2], 16 µM (≈ 6.71 µg/mL); in [3], 8 µM (≈ 3.35 µg/mL); in the data set with Mycobacterium avium [4] it was 16 µM (≈ 6.71 µg/mL); against Mycobacterium kansasii [5] it was 8 µM (≈ 3.35 µg/mL); against Mycobacterium kansasii [6], 16 µM (≈ 6.71 µg/mL). The MIC against Mycobacterium kansasii [7] came out at 32 µM (≈ 13.4 µg/mL); with Mycobacterium kansasii [8], 16 µM (≈ 6.71 µg/mL); with Mycobacterium kansasii [9], 32 µM (≈ 13.4 µg/mL); with Mycobacterium kansasii [10] it was 32 µM (≈ 13.4 µg/mL). The IC50 in [11] came out at 118 µM.
In the case of `O=[N+]([O-])c1ccc(C[Se]c2nnnn2Cc2ccccc2)c([N+](=O)[O-])c1`, the MIC in data set [1] was determined as 8 µM (≈ 3.35 µg/mL); in the data set with Mycobacterium avium [2], 250 µM (≈ 105 µg/mL); in data set [3], 16 µM (≈ 6.71 µg/mL); in the data set on Mycobacterium avium [4] it was 250 µM (≈ 105 µg/mL); against Mycobacterium kansasii [5], 16 µM (≈ 6.71 µg/mL); against Mycobacterium kansasii [6], 32 µM (≈ 13.4 µg/mL). Moreover, the MIC against Mycobacterium kansasii [7] turned out to be 125 µM (≈ 52.4 µg/mL); against Mycobacterium kansasii [8] it was 16 µM (≈ 6.71 µg/mL); against Mycobacterium kansasii [9], 62 µM (≈ 26 µg/mL); with Mycobacterium kansasii [10], 125 µM (≈ 52.4 µg/mL). In addition, in data set [11], the IC50 came to 8.5 µM.
For `O=[N+]([O-])c1ccc(CSc2nnn(Cc3ccccc3)n2)c([N+](=O)[O-])c1`, the MIC in data set [1] turned out to be 4 µM (≈ 1.49 µg/mL); in the data set on Mycobacterium avium [2], 32 µM (≈ 11.9 µg/mL); in data set [3], 4 µM (≈ 1.49 µg/mL); with Mycobacterium avium [4] it was 62 µM (≈ 23.1 µg/mL); in the data set on Mycobacterium kansasii [5] it was 16 µM (≈ 5.96 µg/mL); in the data set on Mycobacterium kansasii [6] it was 32 µM (≈ 11.9 µg/mL). The minimum inhibitory concentration (MIC) with Mycobacterium kansasii [7] amounted to 62 µM (≈ 23.1 µg/mL); against Mycobacterium kansasii [8], 8 µM (≈ 2.98 µg/mL); with Mycobacterium kansasii [9] it was 16 µM (≈ 5.96 µg/mL); against Mycobacterium kansasii [10], 32 µM (≈ 11.9 µg/mL). Also, the IC50 in data set [11] worked out at 21 µM.

The MIC is the lowest concentration found to suppress growth. The low end stands for greater potency, the high end for weaker potency. Usually IC50 stands for the midpoint of a concentration-inhibition curve.

(Values after ChEMBL document CHEMBL3621085, “Tetrazole regioisomers in the development of nitro group-containing antitubercular agents” (Medchemcomm, 2015).)
